The test system of data set [1] is PCSK9 secreted by HepG2 cells. Kind of data set: Effect on the concentration of PCSK9 secreted by HepG2 cells (ELISA). Conditions: Homo sapiens, 48 hours, PCSK9 in culture medium by ELISA. It is filed as cell-based. The protocol:
1. Experimental objective: To detect the inhibitory effect of the compounds on PCSK9.
2. Experimental method: • 1) HepG2 cell strain was cultured in the complete culture medium at 37° C., 5% CO2 to 70-90% confluence. • 2) The cells were digested and resuspended in the experimental culture medium, inoculated at 25,000 cells/well/200 μL in a 96-well cell culture plate, and cultured at 37° C. and 5% CO2 for 20-24 hours. • 3) The culture medium was removed from the cell culture plate, and the cell culture plate was washed once by adding 200 ul of the experimental culture medium to each well. • 4) Preparation of positive control compound and compound to be tested: the positive control compound and the compound to be tested were diluted on the compound plate. • 5) The diluted compound was added to the cell culture plate at 250 μL per well and incubated at 37° C. and 5% CO2 for 48 hours. • 6) The cell culture medium was collected at 200 μL per well and cryopreserved at −80° C. for later use. • 7) A sample of the cell culture medium was taken from the −80° C. cryopreservation condition, dissolved, vortexed, and centrifuged for later use. • 8) Preparation of standard curve: corresponding volumes of Dilution buffer were successively added to respective standard tubes, and in the order of the concentrations of 10, 5, 2.5, 1.25, 0.625, 0.313, 0.16, 0 ng/mL, the standard was diluted in series by taking the corresponding volume from the original tube or the last concentration tube. • 9) Preparation of washing liquid: 10x Wash buffer was diluted into 1x with Milli-Q for later use. • 10) According to the standard curve wells and sample wells set according to a plate map, 100 μL/well of the corresponding standards and culture medium samples were added to the wells, with 2 replicate wells. A self-adhesive seal was applied, the plate was placed on a plate shaker at room temperature, gently shaken, uniformly mixed, and incubated for 1 hour. • 11) The plate was placed on the plate washer, the washing liquid was set to 350 μL per well, and the plate was washed 4 times repeatedly. • 12) 100 μL/well of an HRP-conjugated detection antibody was added, a self-adhesive seal was applied, and the plate was placed on the plate shaker, well mixed uniformly, and incubated for 1 hour. • 13) The plate was placed on the plate washer, the washing liquid was set to 350 μL per well, and the plate was washed 4 times repeatedly. • 14) 100 μL/well of Substrate reagent was added, and the plate was placed in the dark, applied with a self-adhesive seal, placed on the plate shaker, well mixed uniformly, and incubated for 10-20 minutes. • 15) 100 μL of Stop solution (1N H2SO4) was added to each well and mixed uniformly. • 16) The optical density (OD) value in each well was measured in sequence at a wavelength of 450 nm by the microplate reader. Detection was carried out within 30 min after the reaction was stopped.
3. Experimental data processing method: After the OD values were read by the microplate reader, the OD value of the 0-concentration standard in the standard group was subtracted from the OD values of the standards, control group, and samples to obtain the actual OD values for these wells. A standard curve was plotted with Graphpad and the concentration of the sample was calculated. If the dilution was performed during the sample detection, the calculated sample concentration was necessarily multiplied by the corresponding dilution ratio in the final calculation, which was the actual concentration of the sample. Inhibition rate=(actual concentration in control−actual concentration in sample)/actual concentration in control*100. According to the inhibition rates corresponding to the different concentrations, IC50 was derived by Graphpad.
(In general: An ELISA detects its analyte on a solid surface through an enzyme-linked reagent.)

Another data set addresses T1, PCSK9 protein (Homo sapiens, UniProt Q8NBP7).
T1 construct: purchased Sino biology (Sino Biological) 29698-H08H
Kind of data set: Binding ability to PCSK9 protein (HTRF). Conditions: PCSK9-His, Alexa Fluor 647 probe compound. The procedure: 1. Experimental objective: To detect the action of compounds to bind PCSK9 protein by an HTRF method.
3. Experimental data processing method: Four-parameter log(inhibitor) vs. response—Variable slope (four parameters) in XLit was used to perform non-linear fitting of the compound concentration and the corresponding inhibition rate, and IC50 was calculated.
(In general: TR-FRET usually uses a lanthanide donor and a delayed reading to cut background.)

Data set [2] is described as follows: Pharmacokinetic determination in mice (PO 5 mg/kg, IV 1 mg/kg). It is filed as in vivo, C57BL/6J mice. Conditions: male, C57BL/6J, mouse, plasma, C57 mice, PO administration, 5 mpk; for AUC(0-inf): read-out: Area under the curve AUC0-∞; for half-life: read-out: Half-life t1/2 (converted); for MRT: read-out: Mean residence time MRT; for Cmax: read-out: Plasma concentration Cmax; for Tmax: read-out: Time to peak tmax. The procedure:
1. Experimental objective: C57BL/6J mice were used as test animals to study the pharmacokinetic behavior of the compounds of the present disclosure in mice (plasma) after oral and intravenous administration.
2.2 Test animals: C57 mice, male, purchased from Shanghai Bk Lab Animal Co., Ltd., with animal production license number (SCXK (Shanghai) 2013-0006 N0.311620400001794).
2.3 Drug preparation: Preparation of oral drug: 10% Solutol HS15
10 g of Solutol HS15 solid was weighed, dissolved in 90 mL of pure water, uniformly mixed, stirred, and ultrasonically treated to form a clear solution. The compound of the present disclosure was weighed and dissolved in this solution, uniformly shaken, and ultrasonically treated for 15 minutes to obtain a colorless clear solution with a concentration of 0.5 mg/mL. Preparation of intravenous drug: 5% DMSO+10% Solutol HS15+85% PBS, the compound of the present disclosure was weighed, 5% DMSO was first added on the basis of the proportion relative to the total volume of administration, and the mixture was vortexed and ultrasonically treated for 2 min until it was completely dissolved; 10% of Solutol HS15 was then added, and the mixture was vortexed and ultrasonically treated for 2 min until it was completely dissolved; and finally, 85% of PBS was added, and the mixture was vortexed, ultrasonically treated for 5 min, and filtered through a 0.22 um filter membrane to obtain a colorless and transparent clear solution with a concentration of 0.2 mg/mL.
2.4 Administration: 3 male C57 mice were fasted overnight and then respectively administered PO at a dose of 5 mg/kg and a volume of 10 mL/kg. 3 male C57 mice were fasted overnight and then respectively administered IV at a dose of 1 mg/kg and a volume of 5 mL/kg.
2.5 Sample collection: Before and after administration of mice, 0.04 mL of blood was collected from the orbit at 0.083 (iv), 0.25, 0.5, 1, 2, 4, 8, and 24 hours, and placed in EDTA-K2 test tubes, which was centrifuged at 6000 rpm at 4° C. for 6 min to separate plasma which was stored at −80° C.; and the […] were fed 4 h after administration.
2.6 Determination results: The final determination results were obtained by using an LCMS/MS method.
3. Experimental results: The main pharmacokinetic parameters were calculated using WinNonlin 6.1.

T1 sequence (Q8NBP7 153-692): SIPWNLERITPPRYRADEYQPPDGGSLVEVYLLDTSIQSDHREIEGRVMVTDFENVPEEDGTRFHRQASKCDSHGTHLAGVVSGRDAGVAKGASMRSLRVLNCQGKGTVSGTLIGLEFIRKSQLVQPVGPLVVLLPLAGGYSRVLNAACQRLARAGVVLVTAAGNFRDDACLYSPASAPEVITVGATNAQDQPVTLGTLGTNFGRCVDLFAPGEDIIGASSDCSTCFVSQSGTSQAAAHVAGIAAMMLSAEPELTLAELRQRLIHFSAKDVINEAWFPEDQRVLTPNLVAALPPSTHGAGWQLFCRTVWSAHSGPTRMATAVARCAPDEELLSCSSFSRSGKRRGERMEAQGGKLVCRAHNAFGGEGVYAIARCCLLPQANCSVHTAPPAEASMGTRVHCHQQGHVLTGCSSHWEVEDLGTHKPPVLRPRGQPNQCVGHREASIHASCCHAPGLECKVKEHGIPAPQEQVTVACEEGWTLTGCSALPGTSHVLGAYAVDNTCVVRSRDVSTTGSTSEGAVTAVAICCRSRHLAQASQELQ

Take `O=C1c2ccc(C3CC3)nc2CN1c1ccc(N[C@H]2CC[C@H](Nc3nc4cc(C(F)(F)F)ccn4n3)C2)nc1` [Example 68, 2-cyclopropyl-6-(6-(((1S,3S)-3-((7-(trifluoromethyl)-[1,2,4]triazolo[1,5-a]pyridin-2-yl)amino)cyclopentyl)amino)pyridin-3-yl)-6,7-dihydro-5H-pyrrolo[3,4-b]pyridin-5-one]: the IC50 (in general, the point on the concentration scale where inhibition reaches its midpoint) in data set [1] turned out to be 2000 nM; on PCSK9 protein it was 9.8 nM.
The like results for `N#Cc1nccc2c1CN(c1ccc(N[C@H]3CC[C@H](Nc4nc5cc(C(F)(F)F)ccn5n4)C3)nc1)C2=O` [Example 76, 1-carbonyl-2-(6-(((1S,3S)-3-((7-(trifluoromethyl)-[1,2,4]triazolo[1,5-a]pyridin-2-yl)amino)cyclopentyl)amino)pyridin-3-yl)-2,3-dihydro-1H-pyrrolo[3,4-c]pyridine-4-carbonitrile] were, in that order, 4800 nM and 13.9 nM.
The like results for `CC(C)(O)c1ccn(-c2ccc(=O)n(-c3ccc(N[C@H]4CC[C@H](Nc5nc6cc(C(F)(F)F)ccn6n5)C4)nc3)c2)n1` [Example 79, 5-(3-(2-hydroxypropan-2-yl)-1H-pyrazol-1-yl)-6′-(((1S,3S)-3-((7-(trifluoromethyl)-[1,2,4]triazolo[1,5-a]pyridin-2-yl)amino)cyclopentyl)amino)-2H-[1,3′-bipyridine]-2-one] were, in that order, 15100 nM and 24.9 nM.
In the same order, the values of `Cc1ccc2c(c1)C(=O)N(c1ccc(N[C@H]3CC[C@H](Nc4nc5cc(C(F)(F)F)ccn5n4)C3)nc1)C2` [Example 82, 6-methyl-2-(6-(((1S,3S)-3-((7-(trifluoromethyl)-[1,2,4]triazolo[1,5-a]pyridin-2-yl)amino)cyclopentyl)amino)pyridin-3-yl)isoindolin-1-one] are 800 nM and 11.8 nM.
On to `O=C1c2cc(F)ccc2CN1c1ccc(N[C@H]2CC[C@H](Nc3nc4cc(C(F)(F)F)ccn4n3)C2)nc1` [Example 83, 6-fluoro-2-(6-(((1S,3S)-3-((7-(trifluoromethyl)-[1,2,4]triazolo[1,5-a]pyridin-2-yl)amino)cyclopentyl)amino)pyridin-3-yl)isoindolin-1-one], for which the IC50 was 1100 nM in data set [1] and 11.5 nM at PCSK9 protein.
The like results for `O=C1c2ccccc2CN1c1ccc(N[C@H]2CC[C@H](Nc3nc4cc(C(F)(F)F)ccn4n3)C2)nc1` [Example 84, 2-(6-(((1S,3S)-3-((7-(trifluoromethyl)-[1,2,4]triazolo[1,5-a]pyridin-2-yl)amino)cyclopentyl)amino)pyridin-3-yl)isoindolin-1-one] were, in that order, 4700 nM and 6.3 nM.
In the same order, the values of `Cc1ccc2c(n1)C(=O)N(c1ccc(N[C@H]3CC[C@H](Nc4nc5cc(C(F)(F)F)ccn5n4)C3)nc1)C2` [Example 91, 2-methyl-6-(6-(((1S,3S)-3-((7-(trifluoromethyl)-[1,2,4]triazolo[1,5-a]pyridin-2-yl)amino)cyclopentyl)amino)pyridin-3-yl)-5,6-dihydro-7H-pyrrolo[3,4-b]pyridin-7-one] are 12900 nM and 10.4 nM.
In the same order, the values of `Cc1cnc2c(c1)CN(c1ccc(N[C@H]3CC[C@H](Nc4nc5cc(C(F)(F)F)ccn5n4)C3)nc1)C2=O` [Example 94] are 20500 nM and 9.5 nM.
In the case of `Cc1cc2c(cn1)CN(c1ccc(N[C@H]3CC[C@H](Nc4nc5cc(OC(F)F)ccn5n4)C3)nc1)C2=O` [Example 99], in data set [2], the AUC(0-inf) turned out to be 27900 ng·h/mL; the half-life was 2.7 h; the MRT – broadly, a mean duration of stay, worked out from the concentration-time curve – was found to be 3.4 h; the Cmax turned out to be 7240 ng/mL. In addition, in data set [2], the Tmax – broadly, the time from dosing to the highest level – stood at 0.25 h. The same compound returned an IC50 in data set [1] of 6600 nM.
For `Cc1cn(-c2ccc(N[C@H]3CC[C@H](Nc4nc5cc(C(F)(F)F)ccn5n4)C3)nc2)c(=O)nc1N` [Example 109], the IC50 in data set [1] was determined as 19600 nM; at PCSK9 protein it was 16.1 nM.
In the same order, the values of `Cc1cn(-c2ccc(N[C@H]3CC[C@H](Nc4nc5cc(C(F)(F)F)ccn5n4)C3)nc2)c(=O)nc1O` [Example 111] are 11200 nM and 16.2 nM.
The like results for `Cc1cnc2c(c1)C(=O)N(c1ccc(N[C@H]3CC[C@H](Nc4nc5cc(C(F)(F)F)ccn5n4)C3)nc1)C2` [Example 115] were, in that order, 2600 nM and 9.9 nM.
The like results for `O=C1c2cc(Cl)cnc2CN1c1ccc(N[C@H]2CC[C@H](Nc3nc4cc(C(F)(F)F)ccn4n3)C2)nc1` [Example 116] were, in that order, 500 nM and 16.4 nM.
For the compound `O=C1c2ccc(Cl)cc2CN1c1ccc(N[C@H]2CC[C@H](Nc3nc4cc(C(F)(F)F)ccn4n3)C2)nc1` [Example 117], the IC50 in data set [1] was found to be 400 nM; on PCSK9 protein, 18.3 nM.
As to `O=C1c2cc(Cl)cnc2CN1c1ccc(N[C@H]2CC[C@H](Nc3nc4cc(OC(F)F)ccn4n3)C2)nc1` [Example 130], in data set [2], the AUC(0-inf) was 57900 ng·h/mL, the half-life is 3.6 h, the MRT was 6.1 h and the Cmax came out at 5090 ng/mL. For the same compound, the Tmax in data set [2] turned out to be 1 h. In data set [1], this compound gave an IC50 of 1500 nM.
On to `N#Cc1cnc2c(c1)C(=O)N(c1cnc(N[C@H]3CC[C@H](Nc4nc5cc(C(F)(F)F)ccn5n4)C3)c(F)c1)C2` [Example 147], for which the IC50 stood at 300 nM in data set [1] and 8.8 nM on PCSK9 protein.
In the same order, the values of `N#Cc1cnc2c(c1)C(=O)N(c1cnc(N[C@H]3CC[C@H](Nc4nc5cc(OC(F)F)ccn5n4)C3)c(F)c1)C2` [Example 153] are 800 nM and 12.2 nM.
As to `O=c1ccccn1-c1ccc(N[C@H]2CC[C@H](Nc3nc4cc(C5CC5)ccn4n3)C2)nc1` [Example 427], the IC50 in data set [1] was found to be 22300 nM.

These data come from patent US12612403B2, “Nitrogen-containing heterocyclic derivative inhibitor, and preparation method therefor and use thereof” (SHANGHAI HANSOH BIOMEDICAL CO., LTD., priority 2024, dated 2026).
